The values below come from US9732063B2, “Kinase inhibitors” (RESPIVERT LIMITED, priority 2012, dated 2017).

For assay [1], the system named is PBMCs. The experiment in a line: IL-2 and IFN gamma release in CD3/CD28 stimulated PBMC cells. In kind it is cell-based. To be noted: Homo sapiens. The method, then:
PBMCs from healthy subjects are separated from whole blood using a density gradient (Lymphoprep, Axis-Shield Healthcare). Cells are added to a 96 well plate pre-coated with a mixture of CD3/CD38 monoclonal antibodies (0.3 μg/mL eBioscience and 3 μg/mL BD Pharmingen respectively). Compound at the desired concentration is then added to the wells and the plate left for 3 days under normal tissue culture conditions. Supernatants are harvested and IL-2 and IFN gamma release determined by Sandwich ELISA (Duo-set, R&D System). The IC50 is determined from the dose response curve.

In assay [2] the target is c-Src (Homo sapiens (Human), UniProt P12931). The experiment in a line: c-Src enzyme inhibition (Z-LYTE FRET). The format is biochemical. The method, then: (§1) The enzyme inhibitory activities of compounds disclosed herein are determined by FRET using synthetic peptides labelled with both donor and acceptor fluorophores (Z-LYTE, Invitrogen Ltd., Paisley, UK).
(§2) The relevant enzyme (3000 ng/mL or 2000 ng/mL respectively, 2.5 μL) is incubated with the test compound (either 4 μg/mL, 0.4 μg/mL, 0.04 μg/mL, or 0.004 μg/mL, 2.5 μL each) for 2 hr at RT. The FRET peptides (8 μM, 2.5 μL), and appropriate ATP solutions (2.5 μL, 800 μM for c-Src, and 60 μM ATP for Syk) are then added to the enzymes/compound mixtures and incubated for 1 hr. Development reagent (protease, 5 μL) is added for 1 hr prior to detection in a fluorescence microplate reader (Varioskan® Flash, ThermoFisher Scientific).
(§3) In all cases, the site-specific protease cleaves non-phosphorylated peptide only and eliminates the FRET signal. Phosphorylation levels of each reaction are calculated using the ratio of coumarin emission (donor) over fluorescein emission (acceptor), for which high ratios indicate high phosphorylation and low ratios indicate low phosphorylation levels.

The target in assay [3] is GSK3α (Homo sapiens (Human), UniProt P49840). As to the kind of experiment: GSK 3α enzyme inhibition (Z-LYTE FRET, Method 2). In kind it is biochemical. How it is done:
as §1
The inhibitory activities of compounds of the invention against the GSK 3α enzyme isoform (Invitrogen), are evaluated by determining the level of activation/phosphorylation of the target peptide. The GSK3-α protein (500 ng/mL, 2.5 μL) is mixed with the test compound (2.5 μL at either 4 μg/mL, 0.4 μg/mL, 0.04 μg/mL, or 0.004 μg/mL) for 2 hr at RT. The FRET peptide (8 μM, 2.5 μL), which is a phosphorylation target for GSK3α, and ATP (40 μM, 2.5 μL) are then added to the enzyme/compound mixture and the resulting mixture incubated for 1 hr. Development reagent (protease, 5 μL) is added for 1 hr prior to detection in a fluorescence microplate reader (Varioskan® Flash, ThermoFisher Scientific).
as §3

Assay [4] addresses p38 MAPKα (Homo sapiens (Human), UniProt Q16539). As to the kind of experiment: p38 MAPKα enzyme inhibition (Z-LYTE FRET, Method 2). In kind it is biochemical. The method, then: as §1
The inhibitory activities of test compounds against the p38 MAPKα isoform (MAPK14: Invitrogen), are evaluated indirectly by determining the level of activation/phosphorylation of the down-stream molecule, MAPKAP-K2. The p38 MAPKα protein (80 ng/mL, 2.5 μL) is mixed with the test compound (2.5 μL of either 4 μg/mL, 0.4 μg/mL, 0.04 μg/mL or 0.004 μg/mL) for 2 hr at RT. […] The mixture is incubated for 1 hr at RT. Development reagent (protease, 5 μL) is added for 1 hr prior to detection in a fluorescence microplate reader (Varioskan® Flash, ThermoFisher Scientific).
as §3

In assay [5] the test system is PBMCs. As to the kind of experiment: LPS-induced TNFα/IL-8 release in PBMC cells. The format is cell-based. To be noted: Homo sapiens, read-out: IC50 Values for Inhibition of Cytokine Release PBMCs IL-8. How it is done: Peripheral blood mononuclear cells (PBMCs) from healthy subjects are separated from whole blood using a density gradient (Lymphoprep, Axis-Shield Healthcare). The PBMCs are seeded in 96 well plates and treated with compounds at the desired concentration for 2 hours before addition of 1 ng/mL LPS (Escherichia Coli O111:B4 from Sigma Aldrich) for 24 hours under normal tissue culture conditions (37° C., 5% CO2). The supernatant is harvested for determination of IL-8 and TN Fa concentrations by sandwich ELISA (Duo-set, R&D systems) and read on the fluorescence microplate reader (Varioskan® Flash, ThermoFisher Scientific).

Assay [6] deals with Syk (Homo sapiens (Human), UniProt P43405). As to the kind of experiment: Syk enzyme inhibition (Z-LYTE FRET). The format is biochemical. How it is done: as §1, §2, §3
[7] abbreviates: read-out: IC50 Values for Inhibition of Cytokine Release PBMCs IL-2.
Setting [8] is: read-out: IC50 Values for Inhibition of Cytokine Release PBMCs IFNγ.

Some results are limits rather than exact numbers.

Chain of GSK3α (P49840 whole entry): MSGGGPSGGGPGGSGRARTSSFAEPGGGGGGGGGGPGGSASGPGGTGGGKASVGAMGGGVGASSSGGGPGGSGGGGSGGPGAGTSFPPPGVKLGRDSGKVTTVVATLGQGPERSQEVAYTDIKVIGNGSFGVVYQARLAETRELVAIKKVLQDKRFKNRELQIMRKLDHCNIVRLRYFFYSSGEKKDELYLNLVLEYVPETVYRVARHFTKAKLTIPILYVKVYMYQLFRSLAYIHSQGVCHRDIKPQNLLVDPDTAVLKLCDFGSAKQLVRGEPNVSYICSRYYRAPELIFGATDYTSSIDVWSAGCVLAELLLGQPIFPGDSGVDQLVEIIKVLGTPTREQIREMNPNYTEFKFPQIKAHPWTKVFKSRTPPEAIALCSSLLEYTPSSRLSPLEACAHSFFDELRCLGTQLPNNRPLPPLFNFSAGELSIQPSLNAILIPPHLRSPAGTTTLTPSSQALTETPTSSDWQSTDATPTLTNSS
Chain of p38 MAPKα (Q16539 whole entry, canonical isoform): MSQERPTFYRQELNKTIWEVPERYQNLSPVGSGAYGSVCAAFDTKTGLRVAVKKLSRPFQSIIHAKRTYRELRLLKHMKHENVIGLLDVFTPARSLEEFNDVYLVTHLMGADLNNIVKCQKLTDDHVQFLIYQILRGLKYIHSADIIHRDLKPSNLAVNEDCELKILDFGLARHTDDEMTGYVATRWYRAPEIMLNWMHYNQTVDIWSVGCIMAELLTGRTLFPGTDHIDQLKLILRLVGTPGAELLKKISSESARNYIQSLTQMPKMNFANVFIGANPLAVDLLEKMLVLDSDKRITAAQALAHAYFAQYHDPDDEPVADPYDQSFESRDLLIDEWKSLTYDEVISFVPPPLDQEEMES
Chain of c-Src (P12931 whole entry, looked up): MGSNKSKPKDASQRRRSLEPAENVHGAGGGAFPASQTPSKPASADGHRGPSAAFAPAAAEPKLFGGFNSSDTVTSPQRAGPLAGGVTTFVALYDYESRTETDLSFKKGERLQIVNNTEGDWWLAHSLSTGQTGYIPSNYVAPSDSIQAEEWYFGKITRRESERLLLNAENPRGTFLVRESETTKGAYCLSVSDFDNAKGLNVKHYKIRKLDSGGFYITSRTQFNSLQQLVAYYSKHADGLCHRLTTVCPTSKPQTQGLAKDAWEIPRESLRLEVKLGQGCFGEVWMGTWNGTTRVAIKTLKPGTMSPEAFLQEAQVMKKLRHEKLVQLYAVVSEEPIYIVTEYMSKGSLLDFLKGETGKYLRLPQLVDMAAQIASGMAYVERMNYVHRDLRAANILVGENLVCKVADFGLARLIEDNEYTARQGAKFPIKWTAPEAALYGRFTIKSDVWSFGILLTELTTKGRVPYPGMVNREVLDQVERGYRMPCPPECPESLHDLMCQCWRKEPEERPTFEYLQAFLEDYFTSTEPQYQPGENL

What is called IC50 is the concentration at which inhibition is half-maximal. Regarding `COCCOCCOCCOc1cc(Nc2nccc(Oc3ccc(NC(=O)Nc4cc(C(C)C)nn4-c4ccc(C)cc4)c(Cl)c3Cl)n2)cc(OC)c1` [Example 35, 1-(2,3-Dichloro-4-((2-((3-methoxy-5-(2-(2-(2-methoxyethoxy)ethoxy)ethoxy)phenyl)-amino)pyrimidin-4-yl)oxy)phenyl)-3-(3-isopropyl-1-(p-tolyl)-1H-pyrazol-5-yl)urea], the IC50 was 9.8 nM in assay [1] (setting [7]); 15 nM in assay [2]; above 10000 nM in assay [3]; 487 nM in assay [4]; 2.1 nM in assay [5].
Regarding `COCCOCCOCCOc1cc(Nc2nccc(Oc3ccc(NC(=O)Nc4cc(C(F)(F)C(F)(F)F)nn4-c4ccc(C)cc4)c4ccccc34)n2)cc(OC)c1` [Example 39, 1-(4-((2-((3-Methoxy-5-(2-(2-(2-methoxyethoxyl)ethoxy)ethoxy)phenyl)amino)pyrimidin-4-yl)oxy)naphthalen-1-yl)-3-(3-(perfluoroethyl)-1-(p-tolyl)-1H-pyrazol-5-yl)urea], the IC50 in assay [3] is 9540 nM; in assay [4] it was 433 nM; in assay [5] it was 5.5 nM.
For `COCCOCCOCCOc1cc(Nc2nccc(Oc3ccc(NC(=O)Nc4cc(C(C)(C)C(F)(F)F)nn4-c4ccc(C)cc4)c4ccccc34)n2)cc(OC)c1` [Example 40, 1-(4-((2-((3-Methoxy-5-(2-(2-(2-methoxyethoxyl)ethoxy)ethoxy)phenyl)amino)pyrimidin-4-yl)oxy)naphthalen-1-yl)-3-(1-(p-tolyl)-3-(1,1,1-trifluoro-2-methylpropan-2-yl)-1H-pyrazol-5-yl)urea], the IC50 in assay [1] (setting [8]) amounted to 1 nM; in assay [1] (setting [7]), 175 nM; in assay [3], 8170 nM; in assay [5], 7.2 nM.
With `COc1cc(Nc2nccc(Oc3ccc(NC(=O)Nc4cc(C(C)(C)C)nn4-c4ccc(C)cc4)c4ccccc34)n2)cc(SCCN2CCOCC2)c1` [Example 41, 1-(3-(tert-Butyl)-1-(p-tolyl)-1H-pyrazol-5-yl)-3-(4-((2-((3-methoxy-5-((2-morpholinoethyl)-thio)phenyl)amino)pyrimidin-4-yl)oxy)naphthalen-1-yl)urea], the IC50 in assay [1] (setting [8]) was 2.5 nM; in assay [1] (setting [7]) it was 80.3 nM; in assay [3], 2820 nM; in assay [4] it was 224 nM; in assay [5], 4.8 nM.
Consider `COc1cc(Nc2nccc(Oc3ccc(NC(=O)Nc4cc(C(C)(C)C)nn4-c4ccc(C)cc4)c4ccccc34)n2)cc(S(=O)(=O)CCCN2CCOCC2)c1` [Example 43, 1-(3-(tert-Butyl)-1-(p-tolyl)-1H-pyrazol-5-yl)-3-(4-((2-((3-methoxy-5-((3-morpholinopropyl)-sulfonyl)phenyl)amino)pyrimidin-4-yl)oxy)naphthalen-1-yl)urea], for which the IC50 came out at 2.2 nM in assay [1] (setting [8]), 78.7 nM in assay [1] (setting [7]), 531 nM in assay [3] and 2.9 nM in assay [5].
Take `COc1cc(Nc2nccc(Oc3ccc(NC(=O)Nc4cc(C(C)(C)C)nn4-c4ccc(C)cc4)c4ccccc34)n2)cc(SCCCO)c1` [Example 48, 1-(3-(tert-Butyl)-1-(p-tolyl)-1H-pyrazol-5-yl)-3-(4-((2-((3-((3-Hydroxypropyl)thio)-5-methoxyphenyl)amino)pyrimidin-4-yl)oxy)naphthalen-1-yl)urea]: the IC50 in assay [1] (setting [7]) turned out to be 49.2 nM; in assay [3] it was 2050 nM; in assay [6], 37 nM; in assay [4], 195 nM; in assay [5] it was 3 nM.
In the case of `COCCOCCOCCOc1cc(F)cc(Nc2nccc(Oc3ccc(NC(=O)Nc4cc(C(C)(C)C)nn4-c4ccc(C)cc4)c4ccccc34)n2)c1` [Example 50, 1-(3-(tert-Butyl)-1-(p-tolyl)-1H-pyrazol-5-yl)-3-(4-((2-((3-fluoro-5-(2-(2-(2-methoxyethoxy)-ethoxy)ethoxy)phenyl)amino)pyrimidin-4-yl)oxy)naphthalen-1-yl)urea], the results for the IC50 in assay [3] and in assay [5] were 3030 nM and 8.6 nM, respectively.
Taken in the same sequence, the figures for `COCCOCCOCCOc1cc(C#N)cc(Nc2nccc(Oc3ccc(NC(=O)Nc4cc(C(C)(C)C)nn4-c4ccc(C)cc4)c4ccccc34)n2)c1` [Example 52, 1-(3-(tert-Butyl)-1-(P-tolyl)-1H-pyrazol-5-yl)-3-(4-((2-((3-cyano-5-(2-(2-(2-methoxyethoxy)-ethoxy)ethoxy)phenyl)amino)pyrimidin-4-yl)oxy)naphthalen-1-yl)urea] were above 13000 nM and 15 nM.
Consider `C#Cc1cc(Nc2nccc(Oc3ccc(NC(=O)Nc4cc(C(C)(C)C)nn4-c4ccc(C)cc4)c4ccccc34)n2)cc(OCCOCCOCCOC)c1` [Example 54, 1-(3-(tert-Butyl)-1-(p-tolyl)-1H-pyrazol-5-yl)-3-(4-((2-((3-ethynyl-5-(2-(2-(2-methoxyethoxy)ethoxy)ethoxy)phenyl)amino)pyrimidin-4-yl)oxy)naphthalen-1-yl)urea], for which the figures for the concentration for half-maximal inhibition (IC50) in assay [3] and in assay [5] were above 10000 nM and 4.5 nM, respectively.
The matching figures for `COCCOCCOCCOc1cc(Cl)cc(Nc2nccc(Oc3ccc(NC(=O)Nc4cc(C(C)(C)C)nn4-c4ccc(C)cc4)c4ccccc34)n2)c1` [Example 64, 1-(3-(tert-Butyl)-1-(p-tolyl)-1H-pyrazol-5-yl)-3-(4-((2-((3-chloro-5-(2-(2-(2-methoxyethoxy)-ethoxy)ethoxy)phenyl)amino)pyrimidin-4-yl)oxy)naphthalen-1-yl)urea]: above 10000 nM and 9.5 nM.
For `COc1cc(Nc2nccc(Oc3ccc(NC(=O)Nc4cc(C(C)(C)C)nn4-c4ccc(C)cc4)c(Cl)c3Cl)n2)cc(OCCCN2CCOCC2)c1` [Example 65, 1-(3-(tert-Butyl)-1-(p-tolyl)-1H-pyrazol-5-yl)-3-(2,3-dichloro-4-((2-((3-methoxy-5-(3-morpholinopropoxyl)phenyl)amino)pyrimidin-4-yl)oxy)phenyl)urea], the IC50 in assay [1] (setting [8]) was 2.8 nM; in assay [1] (setting [7]), 37 nM; in assay [3] it was above 10000 nM; in assay [5] it was 3.5 nM.
For `COCCOCCOCCOc1cc(Nc2nccc(Oc3ccc(NC(=O)Nc4cc(C(C)(C)C)nn4-c4ccc(C)cc4)c4ccccc34)n2)cc(N(C)C)c1` [Example 66, 1-(3-(tert-Butyl)-1-(p-tolyl)-1H-pyrazol-5-yl)-3-(4-((2-((3-(dimethylamino)-5-(2-(2-(2-methoxyethoxy)ethoxy)ethoxy)phenyl)amino)pyrimidin-4-yl)oxy)naphthalen-1-yl)urea], the 50% inhibitory concentration (IC50) was 3390 nM in assay [3] and 2.6 nM in assay [5].
In the case of `COCCOCCOCCOc1cc(Nc2nccc(Oc3ccc(NC(=O)Nc4cc(C(C)(C)C)nn4-c4ccc(C)cc4)c4ccccc34)n2)cc(OC)c1Cl` [Example 72, 1-(3-(tert-Butyl)-1-(p-tolyl)-1H-pyrazol-5-yl)-3-(4-((2-((4-chloro-3-methoxy-5-(2-(2-(2-methoxyethoxyl)ethoxy)ethoxy)phenyl)amino)pyrimidin-4-yl)oxy)naphthalen-1-yl)urea], the IC50 in assay [1] (setting [8]) is 3.3 nM; in assay [1] (setting [7]) it was 35.1 nM; in assay [3], above 10000 nM; in assay [6] it was 75 nM; in assay [4] it was 377 nM.
